The values that follow come from patent publication US20080008745A1, “Transdermal delivery of naltrexone hydrochloride, naltrexol hydrochloride, and bis(hydroxy-methyl)propionyl-3-0 ester naltrexone using microneedles” (UNIVERSITY OF KENTUCKY RESEARCH FOUNDATION, priority 2006, published 2008).

The term AUC denotes concentration integrated over time. Higher therefore signals high exposure. One may read the Cmax as the peak of the concentration-time curve. One may read the Tmax as the time from dosing to the highest level.

The nature of data set [1]: In vitro skin diffusion study, flow-through diffusion cell, guinea pig skin. Here is the method: Hairless guinea pig skin was harvested from euthanitized animals. Animal studies were approved by the University of Kentucky IACUC. Human skin harvested during abdominoplasty was used for the diffusion studies. Human tissue use was approved by the University of Kentucky Institutional Review Board. Skin sections were obtained by removing the subcutaneous fatty tissue by scalpel dissection and stored at −20° C. A PermeGear flow-through (In-Line, Riegelsville, Pa.) diffusion cell system was used for the skin permeation studies. Skin used for microneedle treatment was placed on a wafer of polydimethylsiloxane polymer, which mimicked the underlying resistance of tissue. The skin was poked 20 times with an array containing 5 MN before mounting the skin in the diffusion cell. Untreated skin samples were simply placed in the diffusion cells. Diffusion cells were kept at 32° C. with a circulating water bath. Data was collected by using skin from a single donor with three cells for untreated formulations and three to four cells for the MN treated formulations. The receiver solution was HEPES-buffered Hanks' balanced salts with gentamicin at pH 7.4, and the flow rate was adjusted to 1.1 mL/h. Each cell was charged with 0.25 mL of the respective drug solution. […] All samples were stored at 4° C. until processed by solid phase extraction.
The cumulative quantity of drug collected in the receiver compartment was plotted as a function of time. The flux value for a given experiment was obtained from the slope of the steady state portion of the cumulative amount of drug permeated, plotted over time. Apparent permeability coefficient values were calculated from Fick's First Law of diffusion: [formula]
Sink conditions were maintained in the receiver solution for the duration of the experiment, so ΔC was approximated by the drug concentration in the donor compartment.
The HPLC analysis was performed as described by Vaddi et al., Pharm. Res. 22 (2005) 758-765. The HPLC system consisted of a Waters 717plus autosampler, a Waters 1525 Binary HPLC pump, and a Waters 2487 Dual λ Absorbance detector with Waters Breeze software. A Brownlee C-18 reversed-phase Spheri-5 μm column (220×4.6 mm) with a C-18 reversed phase 7 μm guard column (15×3.2 mm) was used with the UV detector set at a wavelength of 215 nm. […] The mobile phase for Naltrexol consisted of 90:10 ACN:0.1% TFA adjusted to pH 3.0 with TEA. Samples were run for 10 min at 1 mL/min as described by Paudel et al., J. Pharm. Sci. 94 (2005) 1965-1975). One hundred microliters of sample was injected onto the column for both Naltrexone and Naltrexol. Samples were analyzed within the linear range of the standard curves.
The drugs were extracted from the buffer samples by solid phase extraction (30mg 1 cc Oasis® HLB, Waters Corp., Milford, Mass.) as described by Vaddi et al., Pharm. Res. 22 (2005) 758-765.
Before extracting the aqueous drug samples (5 mL), the cartridge was conditioned with 1 mL of methanol and 1 mL of nanopure water. After sample loading, the cartridge was washed with 1 mL of 5% methanol and the drug was eluted with ACN and analyzed by HPLC. A similar extraction method was employed for Naltrexol, except 2 mL of methanol was used in conditioning and 1 mL of nanopure water was also used to further wash the samples after being loaded onto the cartridge. The Naltrexol was eluted with 2 mL of isopropanol and finally with 1 mL ACN. Naltrexol samples were evaporated under nitrogen in a water bath maintained at 37° C. The samples were then reconstituted with 1 mL of ACN for HPLC analysis. Highly concentrated samples of Naltrexone and Naltrexol were further diluted 10 times in ACN.
The data obtained from the diffusion experiments were plotted as the cumulative amount of drug collected in the receiver compartment as a function of time.

Data set [2] in a line: In vitro skin diffusion study, flow-through diffusion cell, human skin. Type of data set: in vitro ADME. The note with it: for Lag time / NTX Flux: Human skin; for Papp at 48 h: human, pH 7.4, Human skin, read-out: Permeability (converted).
Data set [3] in a line: Solubility in 3:1 PG:Hanks' buffer. In kind it is physicochemical. Conditions: 32° C., 24 h; Hydrochloride. As to the method:
An excess of Naltrexone HCl (˜350 mg) was added to 1 mL of 3:1 PG:Hanks' buffer. The saturated solution was then vortexed for 1 min, sonicated for 15 min, and placed in an incubator at 32° C. for 24 h while shaking on a belly shaker. Just before filtering, a glass syringe and 0.45 μm filter were heated in an incubator to 32° C. The solution was filtered and diluted with ACN for high pressure liquid chromatography (HPLC) analysis.

Data set [4] in a line: Solubility or concentration of Naltrexol base in 3:1 H2O:PG after pH adjustment. In kind it is physicochemical. Conditions: for Concentration in 3:1 H2O:PG: concentration of drug in solution, freely soluble in the ionized form; for Solubility in 3:1 H2O:PG: pH adjusted. As to the method:
100 mg of Naltrexol base was prepared in 3:1 H2O:PG. The solution was briefly vortexed and sonicated for 10 min. To obtain a mixture of pH 8.5 Naltrexol base, 0.5 N sodium hydroxide was added incrementally. The same procedure was performed to obtain a pH 4.5 solution, except 0.5 M HCl was added dropwise. […] The solution was saturated with excess solid when the pH was raised above the first pKa (7.4) of Naltrexol base.

Data set [5] in a line: In vivo pharmacokinetics in hairless guinea pigs, gel with or without microneedles. The arrangement: species or system hairless guinea pig. Here is the method: In vivo studies of hairless guinea pigs were performed in order to obtain pharmacokinetic parameters for guinea pigs treated with 26 mg Naltrexol base gel, MN application followed by 26 mg Naltrexol base gel, 285 mg Naltrexol HCl gel and MN application followed by 285 mg Naltrexol HCl. The base was saturated in gel whereas the hydrochloride salt remained soluble in solution.

The conditions of data set [6]: cited from earlier work.
Where [7] appears, read: MN Treated GP skin, 100 mg/ml Naltrexone base equivalent in 3:1 PG:water, 48 hours.
Setting [8] is: GP skin, MN Treated, High Dose, listed as Naltrexol pH 4.5.
[9] abbreviates: GP skin, No MN, High Dose, 3:1 H2O:PG.
Where [10] appears, read: MN application followed by gel (26 mg base or 285 mg HCl).
Setting [11] is: no MN, gel (26 mg Naltrexol base or 285 mg Naltrexol HCl).

≈ marks a conversion by molar mass, not a printed value. Structures can show the parent of a compound that is named as a salt. Where two headings read alike, the source gives them in different places.

On to `CC(CO)(CO)C(=O)Oc1ccc2c3c1OC1C(=O)CCC4(O)C(C2)N(CC2CC2)CCC314` (stereo not shown) [NTX-Diol ester, bis(hydroxymethyl)propionyl-3-O-ester naltrexone], for which, in data set [1] (setting [7]), the Flux is reported as 71.98 ± 26.38 nmol/cm^2/h and the Lag time worked out at 10.33 ± 7.95 h. The “Flux level relative to Naltrexone HCl with MN treatment” value in data set [1] (MN treated GP skin) was “approximately twice”.
`O=C1CC[C@@]2(O)[C@H]3Cc4ccc(O)c5c4[C@@]2(CCN3CC2CC2)[C@H]1O5` [NTX-HCl, Naltrexone Hydrochloride]: the “Flux enhancement by MN treatment” value in data set [1] (GP skin, MN vs untreated) is 10 fold; in data set [2] (human skin, MN vs untreated, p<0.05), 8 fold. Moreover, the “NTX Flux” value is recorded as 27.16 ± 4.57 nmol/cm^2/h in data set [1] (MN GP skin, 3:1 PG:Hanks' buffer, Hydrochloride); 27.16±4.57 nmol/cm^2/h in data set [1] (MN GP skin, 3:1 PG:Hanks' buffer, listed as Naltrexone HCl, Hydrochloride); 2.71 ± 1.20 nmol/cm^2/h in data set [1] (No MN GP skin, Hydrochloride); 18.54 ± 4.38 nmol/cm^2/h in data set [2] (MN); 2.22 ± 0.72 nmol/cm^2/h in data set [2] (No MN). The Lag time in data set [1] (MN GP skin, Hydrochloride) worked out at 2.41 ± 3.85 h; in data set [1] (MN GP skin, listed as Naltrexone HCl, Hydrochloride), 2.41 ± 3.85 h; in data set [1] (No MN GP skin, Hydrochloride), 22.38 ± 7.68 h; in data set [1] (No MN GP skin, listed as Naltrexone HCl, Hydrochloride) it was 22.38 ± 7.68 h; in data set [2] (MN), 12.06 ± 4.32 h; in data set [2] (No MN), 23.66 ± 2.74 h. In addition, the “Maximum daily dose (calculated from Eq. 2)” value in data set [2] (10 cm^2 patch, MN-treated human skin, highest concentration measured) was 5.0 mg. Besides, the Papp at 48 h in data set [2] (MN) is 0.0194 ×10⁻⁶ cm/s; in data set [2] (No MN), 0.00233 ×10⁻⁶ cm/s. Moreover, the “Permeability Kp (estimated)” value in data set [2] (microneedle-treated human skin) was 0.0194 ×10⁻⁶ cm/s. The “Solubility in 3:1 PG:Hanks Buffer” value in data set [3] came out at 794400 µM.
Consider `Oc1ccc2c3c1O[C@H]1[C@H](O)CC[C@@]4(O)[C@@H](C2)N(CC2CC2)CC[C@]314` [NTXOL Base pH 4.5, 6-β-Naltrexol], for which the “Concentration in 3:1 H2O:PG” value is listed as “**292.40 mM” in data set [4] (High Dose) and “**76.02 mM” in data set [4] (Low Dose). In addition, the Lag time in data set [1] (GP skin, MN Treated, High Dose) was 6.58 ± 5.02 h; in data set [1] (setting [8]), 6.58 ± 5.02 h; in data set [1] (GP skin, MN Treated, Low Dose) it was 10.33 ± 7.95 h; in data set [1] (GP skin, No MN, High Dose), 25.97 ± 5.50 h; in data set [1] (GP skin, No MN, High Dose, listed as Naltrexol pH 4.5), 25.97 ± 5.50 h; in data set [1] (GP skin, No MN, Low Dose), 27.18 ± 1.31 h. Moreover, the “NTXOL Flux” value in data set [1] (GP skin, MN Treated, High Dose) is recorded as 35.07 ± 8.18 nmol/cm^2/h; in data set [1] (setting [8]), 35.07±8.18 nmol/cm^2/h; in data set [1] (GP skin, MN Treated, Low Dose), 71.98 ± 26.38 nmol/cm^2/h; in data set [1] (setting [9]), 6.56 ± 6.49 nmol/cm^2/h; in data set [1] (GP skin, No MN, Low Dose), 11.50 ± 4.20 nmol/cm^2/h. Further, the “Flux enhancement relative to Naltrexone HCl” value in data set [1] (MN treated GP skin) stood at 1.3 fold.
For `Oc1ccc2c3c1O[C@H]1[C@H](O)CC[C@@]4(O)[C@@H](C2)N(CC2CC2)CC[C@]314` [NTXOL Base pH 8.5, 6-β-Naltrexol], the figures for the “Solubility in 3:1 H2O:PG” value in data set [4] and in data set [4] (listed as Naltrexol base at pH 8.5) were 2690 µM (≈ 924 µg/mL) and 2920 µM (≈ 1000 µg/mL), respectively. In addition, the Lag time came to 17.53 ± 6.56 h in data set [1] (GP skin, MN Treated, High Dose); 15.67 ± 6.96 h in data set [1] (GP skin, MN Treated, Low Dose); 24.34 ± 5.17 h in data set [1] (GP skin, No MN, High Dose); 24.34 ± 5.17 h in data set [1] (GP skin, No MN, High Dose, listed as Naltrexol pH 8.5); 25.37 ± 1.10 h in data set [1] (GP skin, No MN, Low Dose). The “NTXOL Flux” value in data set [1] (GP skin, MN Treated, High Dose) was determined as 4.79 ± 2.62 nmol/cm^2/h; in data set [1] (GP skin, MN Treated, Low Dose), 15.19 ± 7.33 nmol/cm^2/h; in data set [1] (setting [9]) it was 1.36 ± 0.91 nmol/cm^2/h; in data set [1] (GP skin, No MN, Low Dose), 8.77 ± 4.08 nmol/cm^2/h.
In data set [5] (setting [10]), `Oc1ccc2c3c1O[C@H]1[C@H](O)CC[C@@]4(O)[C@@H](C2)N(CC2CC2)CC[C@]314` [NTXOL Base, 6-β-Naltrexol] showed an AUC of 303.1 ng·h/mL, a Cmax of 8.5 ng/mL, a Css of 5.04 ± 2.57 ng/mL and a Tlag of 0.7 h. Also, in data set [5] (setting [10]), the Tmax was determined as 0.7 h. Besides, in data set [5] (setting [11]), the AUC was found to be 50.5 ± 10.1 ng·h/mL, the Cmax is 1.7 ± 0.5 ng/mL, the Css was determined as 0.95 ± 0.41 ng/mL and the Tlag is recorded as 5.2 ± 1.6 h. The Tmax in data set [5] (setting [11]) was 40.1 ± 11.7 h. Besides, in data set [6], the “first pKa” value is recorded as 7.4.
In turn, `Cl.Oc1ccc2c3c1O[C@H]1[C@H](O)CC[C@@]4(O)[C@@H](C2)N(CC2CC2)CC[C@]314` [NTXOL HCl, Naltrexol Hydrochloride] displayed a Flux in data set [1] (MN treated skin, earlier experiment) of 36.12±1.77 nmol/cm^2/h. This compound also yielded a Flux in data set [1] (untreated skin, earlier experiment) of 2.75±1.38 nmol/cm^2/h. Moreover, in data set [5] (MN and gel therapy, FIG. 8), the “Plasma concentrations compared to no microneedles and Naltrexol base” value was “markedly higher”. In addition, in data set [5] (setting [10]), the area under the curve (AUC) was determined as 1349 ± 616 ng·h/mL, the maximum concentration (Cmax) worked out at 48.5 ± 18.8 ng/mL, the Css is given as 21.3 ± 6.9 ng/mL and the Tlag came out at 0.7 ± 0.3 h. The time to peak (Tmax) in data set [5] (setting [10]) was determined as 19.2 ± 11.5 h. In data set [5] (setting [11]), this compound gave an AUC of 24.4 ng·h/mL, a Cmax of 4.1 ng/mL, a Css of 1.8 ± 1.68 ng/mL and a Tlag of 1 h. Further, the Tmax in data set [5] (setting [11]) came out at 7.0 h.
